Results as given in ChEMBL document CHEMBL3045814, “Antifungal activity of Hinokitiol-related compounds on wood-rotting fungi and their insecticidal activities” (2000).
Values after ≈ are worked out from the molar mass of the structure shown. Active and inactive are the calls of the source. No cut-off for these calls is given here.

Key:
Type in all cases: functional
Coptotermes formosanus [1] = assay: Insecticidal activity against Coptotermes formosanus assessed as mortality after 24 to 48 hr
Schizophyllum commune = assay: Antifungal activity against Schizophyllum commune IFO-4928 assessed as growth inhibition after 7 days by agar dilution method; settings: for MIC: IFO-4928, 168 h
Trametes versicolor = assay: Antifungal activity against Trametes versicolor IFO-4940 assessed as growth inhibition after 7 days by agar dilution method; settings: for MIC: IFO-4940, 168 h
Tyrophagus putrescentiae [2] = assay: Insecticidal activity against Tyrophagus putrescentiae assessed as mortality after 24 hr by clip method
Fomitopsis dickinsii = assay: Antifungal activity against Daedalea dickinsii IFO-4979 assessed as growth inhibition after 7 days by agar dilution method; settings: for MIC: IFO-4979, 168 h
Lenzites betulinus = assay: Antifungal activity against Lenzites betulinus IFO-4964 assessed as growth inhibition after 7 days by agar dilution method; settings: for MIC: IFO-4964, 168 h
Trametes coccinea = assay: Antifungal activity against Pycnoporus coccineus IFO-4924 assessed as growth inhibition after 7 days by agar dilution method; settings: for MIC: IFO-4924, 168 h
Coptotermes formosanus [3] = assay: Insecticidal activity against Coptotermes formosanus assessed as mortality at 0.02 g/m2 after 48 hr relative to control
Tyrophagus putrescentiae [4] = assay: Insecticidal activity against Tyrophagus putrescentiae assessed as mortality at 1 g/m2 after 24 hr by clip method relative to control
Tyrophagus putrescentiae [5] = assay: Insecticidal activity against Tyrophagus putrescentiae assessed as mortality at 0.1 g/m2 after 24 hr by clip method relative to control
Coptotermes formosanus [6] = assay: Insecticidal activity against Coptotermes formosanus assessed as mortality at 1 g/m2 after 24 hr relative to control
Tyrophagus putrescentiae [7] = assay: Insecticidal activity against Tyrophagus putrescentiae assessed as mortality at 0.02 g/m2 after 24 hr by clip method relative to control
Coptotermes formosanus [8] = assay: Insecticidal activity against Coptotermes formosanus assessed as mortality at 0.02 g/m2 after 24 hr relative to control
Tyrophagus putrescentiae [9] = assay: Insecticidal activity against Tyrophagus putrescentiae assessed as mortality at 0.05 g/m2 after 24 hr by clip method relative to control
Tyrophagus putrescentiae [10] = assay: Insecticidal activity against Tyrophagus putrescentiae assessed as mortality at 0.5 g/m2 after 24 hr by clip method relative to control
Coptotermes formosanus [11] = assay: Insecticidal activity against Coptotermes formosanus assessed as mortality at 0.01 g/m2 after 48 hr relative to control
Coptotermes formosanus [12] = assay: Insecticidal activity against Coptotermes formosanus assessed as mortality at 1 g/m2 after 48 hr relative to control
Coptotermes formosanus [13] = assay: Insecticidal activity against Coptotermes formosanus assessed as mortality at 0.01 g/m2 after 24 hr relative to control
Tyrophagus putrescentiae [14] = assay: Insecticidal activity against Tyrophagus putrescentiae assessed as mortality at 0.01 g/m2 after 24 hr by clip method relative to control
Coptotermes formosanus [15] = assay: Insecticidal activity against Coptotermes formosanus assessed as mortality at 0.1 g/m2 after 48 hr relative to control
Coptotermes formosanus [16] = assay: Insecticidal activity against Coptotermes formosanus assessed as mortality at 0.05 g/m2 after 48 hr relative to control
Tyrophagus putrescentiae [17] = assay: Insecticidal activity against Tyrophagus putrescentiae assessed as mortality at 0.2 g/m2 after 24 hr by clip method relative to control
Coptotermes formosanus [18] = assay: Insecticidal activity against Coptotermes formosanus assessed as mortality at 0.2 g/m2 after 48 hr relative to control
Coptotermes formosanus [19] = assay: Insecticidal activity against Coptotermes formosanus assessed as mortality at 0.05 g/m2 after 24 hr relative to control
Coptotermes formosanus [20] = assay: Insecticidal activity against Coptotermes formosanus assessed as mortality at 0.2 g/m2 after 24 hr relative to control
Coptotermes formosanus [21] = assay: Insecticidal activity against Coptotermes formosanus assessed as mortality at 0.1 g/m2 after 24 hr relative to control
Coptotermes formosanus [22] = assay: Insecticidal activity against Coptotermes formosanus assessed as mortality at 0.00005 g/m2 after 24 hr relative to control
Coptotermes formosanus [23] = assay: Insecticidal activity against Coptotermes formosanus assessed as mortality at 0.00025 g/m2 after 48 hr relative to control
Coptotermes formosanus [24] = assay: Insecticidal activity against Coptotermes formosanus assessed as mortality at 0.00050 g/m2 after 24 hr relative to control
Coptotermes formosanus [25] = assay: Insecticidal activity against Coptotermes formosanus assessed as mortality at 0.00010 g/m2 after 24 hr relative to control
Coptotermes formosanus [26] = assay: Insecticidal activity against Coptotermes formosanus assessed as mortality at 0.00050 g/m2 after 48 hr relative to control
Coptotermes formosanus [27] = assay: Insecticidal activity against Coptotermes formosanus assessed as mortality at 0.00005 g/m2 after 48 hr relative to control
Coptotermes formosanus [28] = assay: Insecticidal activity against Coptotermes formosanus assessed as mortality at 0.00025 g/m2 after 24 hr relative to control
Coptotermes formosanus [29] = assay: Insecticidal activity against Coptotermes formosanus assessed as mortality at 0.00010 g/m2 after 48 hr relative to control
Coptotermes formosanus [30] = assay: Insecticidal activity against Coptotermes formosanus assessed as mortality at 0.00001 g/m2 after 48 hr relative to control
Coptotermes formosanus [31] = assay: Insecticidal activity against Coptotermes formosanus assessed as mortality at 0.00001 g/m2 after 24 hr relative to control

SMILES | MIC (Schizophyllum commune) | MIC (Trametes versicolor) | MIC (Fomitopsis dickinsii) | MIC (Lenzites betulinus) | MIC (Trametes coccinea) | LC50 (Coptotermes formosanus [1]) | mortality (Coptotermes formosanus [3]) | mortality (Tyrophagus putrescentiae [4]) | mortality (Tyrophagus putrescentiae [5]) | mortality (Coptotermes formosanus [6]) | mortality (Tyrophagus putrescentiae [7]) | mortality (Coptotermes formosanus [8]) | mortality (Tyrophagus putrescentiae [9]) | mortality (Tyrophagus putrescentiae [10]) | mortality (Coptotermes formosanus [11]) | mortality (Coptotermes formosanus [12]) | mortality (Coptotermes formosanus [13]) | mortality (Tyrophagus putrescentiae [14]) | LC50 (Tyrophagus putrescentiae [2]) | mortality (Tyrophagus putrescentiae [17]) | also measured
CC(=O)Oc1cc(C(C)C)cccc1=O | – | – | – | – | – | – | – | – | – | – | – | – | – | – | – | – | – | – | – | – | Activity (Coptotermes formosanus [1]): inactive; growth inhibition (GI) (Schizophyllum commune): inactive; growth inhibition (GI) (Trametes versicolor): inactive; Activity (Tyrophagus putrescentiae [2]): inactive; growth inhibition (GI) (Fomitopsis dickinsii): inactive; growth inhibition (GI) (Lenzites betulinus): inactive; growth inhibition (GI) (Trametes coccinea): inactive
C[C@@H]1[C@H](O)[C@@H](C)/C=C/C=C/C=C/C=C/C=C/C=C/C=C/[C@H](O[C@@H]2O[C@H](C)[C@@H](O)[C@H](N)[C@@H]2O)C[C@@H]2O[C@](O)(C[C@@H](O)C[C@@H](O)[C@H](O)CC[C@@H](O)C[C@@H](O)CC(=O)O[C@H]1C)C[C@H](O)[C@H]2C(=O)O [AMPHOTERICIN B] | 0.39 µg/mL (≈ 0.422 µM) | 0.39 µg/mL (≈ 0.422 µM) | 0.39 µg/mL (≈ 0.422 µM) | 0.39 µg/mL (≈ 0.422 µM) | 0.78 µg/mL (≈ 0.844 µM) | – | – | – | – | – | – | – | – | – | – | – | – | – | – | – | –
C=C(C)c1cccc(=O)c(O)c1 [BETA-DOLABRIN] | 12.5 µg/mL (≈ 77.1 µM) | 6.25 µg/mL (≈ 38.5 µM) | 0.2 µg/mL (≈ 1.23 µM) | 12.5 µg/mL (≈ 77.1 µM) | 25 µg/mL (≈ 154 µM) | 0.05 g/m2 | 0% | 100% | 90% | 100% | 31% | 0% | 91% | 100% | 0% | 100% | 0% | 0% | 0.02 g/m2 | 100% | mortality (Coptotermes formosanus [15]): 95%; mortality (Coptotermes formosanus [16]): 11%; mortality (Coptotermes formosanus [18]): 100%; mortality (Coptotermes formosanus [19]): 0%; mortality (Coptotermes formosanus [20]): 100%; mortality (Coptotermes formosanus [21]): 40%
CCOP(=S)(OCC)Oc1nc(Cl)c(Cl)cc1Cl [CHLORPYRIFOS] | – | – | – | – | – | 0.00016 g/m2 | – | – | – | – | – | – | – | – | – | – | – | – | – | – | mortality (Coptotermes formosanus [22]): 10%; mortality (Coptotermes formosanus [23]): 100%; mortality (Coptotermes formosanus [24]): 100%; mortality (Coptotermes formosanus [25]): 25%; mortality (Coptotermes formosanus [26]): 100%; mortality (Coptotermes formosanus [27]): 40%; mortality (Coptotermes formosanus [28]): 60%; mortality (Coptotermes formosanus [29]): 75%; mortality (Coptotermes formosanus [30]): 0%; mortality (Coptotermes formosanus [31]): 0%
CCN(CC)C(=O)c1cccc(C)c1 [DIETHYLTOLUAMIDE] | – | – | – | – | – | – | – | 67.1% | 0% | – | 0% | – | 0% | 18.9% | – | – | – | 0% | 0.79 g/m2 | 4.5% | –
CC(C)c1ccc(O)c(=O)cc1 [GAMMA-THUJAPLICIN] | 12.5 µg/mL (≈ 76.1 µM) | 6.25 µg/mL (≈ 38.1 µM) | 0.2 µg/mL (≈ 1.22 µM) | 12.5 µg/mL (≈ 76.1 µM) | 25 µg/mL (≈ 152 µM) | 0.05 g/m2 | 11% | 100% | 84% | 100% | 51% | 0% | 66% | 100% | 5% | 100% | 0% | 0% | 0.02 g/m2 | 100% | mortality (Coptotermes formosanus [15]): 100%; mortality (Coptotermes formosanus [16]): 32%; mortality (Coptotermes formosanus [18]): 100%; mortality (Coptotermes formosanus [19]): 10%; mortality (Coptotermes formosanus [20]): 100%; mortality (Coptotermes formosanus [21]): 20%
CC(C)c1cccc(=O)c(O)c1 [HINOKITIOL] | 12.5 µg/mL (≈ 76.1 µM) | 12.5 µg/mL (≈ 76.1 µM) | 0.2 µg/mL (≈ 1.22 µM) | 12.5 µg/mL (≈ 76.1 µM) | 12.5 µg/mL (≈ 76.1 µM) | 0.07 g/m2 | 20% | 100% | 11.9% | 100% | 0% | 10% | 0% | 91.3% | 0% | 100% | 0% | 0% | 0.246 g/m2 | 33.6% | mortality (Coptotermes formosanus [15]): 100%; mortality (Coptotermes formosanus [16]): 50%; mortality (Coptotermes formosanus [18]): 100%; mortality (Coptotermes formosanus [19]): 40%; mortality (Coptotermes formosanus [20]): 100%; mortality (Coptotermes formosanus [21]): 50%
